# Results taken from publication PMC6943527, “Are the Hydantoin-1,3,5-triazine 5-HT6R Ligands a Hope to a Find New Procognitive and Anti-Obesity Drug? Considerations Based on Primary In Vivo Assays and ADME-Tox Profile In Vitro” (Molecules, 2019).
# Values joined by “and” are separate entries in the source; they are usually repeats but may differ in a detail not shown here. Identical values can stand only once.
# Key:
# [1] = Caco-2 permeability assay; type: in vitro ADME; conditions: human, Caco-2; 10 µM in apical chamber, 2 h, 37 °C, two experiments; read-out: Caco-2 Papp ± SD
# Procedure: (§1) The Caco-2 (ATCC® HTB-37^TM) cell line was purchased from American Type Culture Collection (ATCC) (Manassas, VG, USA). The cells were cultivated in Dulbecco’s Modified Eagle’s Medium (DMEM) supplemented with 10% fetal bovine serum (FBS) in a humidified atmosphere of 5% CO2. The medium was changed every two days, and the cells were subcultured at 70%–80% confluence. […] The inserts were pretreated first with 50 µL of the medium for two minutes. Next, the 200 µL of cells were seeded at […] concentration per insert in apical compartment, whereas 600 µL was added to the basolateral one. […] TEER (transepithelial electrical resistance) measurements was started from 18 days after seeding by Millicell ERS-2 Volt-Ohm Meter (Merck Millipore, Burlington, MA, USA). […] Then, the monolayer was rinsed with HBSS (Hank’s balanced salt solution) and KMP-10, and the highly permeable reference CFN was added at a 10 µM concentration with the HBSS into the apical chambers. The 600 µL of HBSS was added to the basolateral compartments. Lucifer yellow (5 µM) was also added to the apical chambers as the membrane integrity marker. The plate was placed in the orbital shaker (60 rpm) for 2 h at 37 °C. The compounds’ concentrations in apical and basolateral wells were analyzed using the UPLC-MS method with IS. To confirm the membrane integrity, the fluorescence of lucifer yellow was measured in basolateral compartment by EnSpire multiplate reader (Perkin Elmer, Waltham, MA, USA).
# (§2) The apparent permeability Papp was calculated from two experiments according to the following formula [34]:Papp= dc/dt × V/(A × C0)(1) where: • dc/dt—the change in concentration in the receiving compartment over time • V—volume of the solution in the receiving compartment (mL) • A—surface area of the membrane (cm^2) • C0—the initial concentration in the donor compartment (µM).
# Caco-2 cells = experiment: Caco-2 permeability assay; type: in vitro ADME
# Procedure: as §1, §2
# CYP2D6 = biological target: T1, CYP2D6 (Homo sapiens, UniProt P10635); experiment: CYP2D6 P450-Glo drug-drug interaction assay; type: in vitro ADME; conditions: summary in comparison to SUVN-502
# T1 construct: purchased Promega (Madison, WI, USA)
# T1 sequence (P10635 whole entry): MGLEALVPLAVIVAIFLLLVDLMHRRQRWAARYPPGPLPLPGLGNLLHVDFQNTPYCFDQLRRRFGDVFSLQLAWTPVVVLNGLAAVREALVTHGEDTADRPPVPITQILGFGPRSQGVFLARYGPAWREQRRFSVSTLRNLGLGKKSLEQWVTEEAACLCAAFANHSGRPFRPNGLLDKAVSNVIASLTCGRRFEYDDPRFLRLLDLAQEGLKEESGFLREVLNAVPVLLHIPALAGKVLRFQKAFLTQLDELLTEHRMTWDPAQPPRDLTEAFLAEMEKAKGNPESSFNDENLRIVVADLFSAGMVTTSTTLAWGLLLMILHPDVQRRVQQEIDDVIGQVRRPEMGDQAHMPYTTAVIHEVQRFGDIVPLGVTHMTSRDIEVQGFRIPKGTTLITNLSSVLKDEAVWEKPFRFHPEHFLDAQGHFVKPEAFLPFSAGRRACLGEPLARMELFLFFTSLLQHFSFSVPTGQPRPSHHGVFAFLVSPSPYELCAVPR
# Procedure: The influence of triazine derivatives on two the most involved in drug metabolism CYP (cytochrome P450) isoforms CYP3A4 and CYP2D6 was also investigated.
# The study was performed using the CYP3A4 P450-Glo^TM and CYP2D6 P450-Glo^TM commercial tests provided by Promega (Madison, WI, USA). The influence of compounds on CYPs activity was tested in white polystyrene, flat-bottom Nunc^TM MicroWell^TM 96-well microplates (Thermo Scientific, Waltham, MA USA), and the bioluminescence signal was measured with a microplate reader (EnSpire) in luminescence mode, as described previously. KMP-10 and DJ-18 were tested in triplicate in the range of 0.01–25 µM for both isoforms’ P450 cytochrome. KE and QD were used as the reference compounds for CYP3A4 and CYP2D6, respectively.
# [2] = Elevated plus-maze (EPM) test; type: in vivo, male Wistar rats; conditions: for Total distance / X Ambulation / Y Ambulation: mean ± SEM
# Procedure: The experiments were performed on male Wistar rats (200–220 g) obtained from an accredited animal facility at the Jagiellonian University Medical College, Poland. The animals were housed in group of four in controlled environment (ambient temperature 21 ± 2 °C; relative humidity 50%–60%; 12-h light/dark cycles (lights on at 8:00). Standard laboratory food (LSM-B) and filtered water were freely available. Animals were randomly assigned to treatment groups. All the experiments were performed by two observers unaware of the studied treatment between 9:00 and 14:00 on separate groups of animals. All animals were used only once. Procedures involving animals and their care were conducted in accordance with current European Community and Polish legislation on animal experimentation. Additionally, all efforts were made to minimize animal suffering and to use only the number of animals necessary to produce reliable scientific data. The experimental protocols and procedures described in this manuscript were approved by the I Local Ethics Commission in Cracow (no 200/2018), complied with the European Communities Council Directive of 24 November 1986 (86/609/EEC), and were in accordance with the 1996 National Institutes of Health Guide for the Care and Use of Laboratory Animals.
# All compounds were suspended in 1% Tween 80 immediately before administration in a volume of 2 mL/kg. Compounds were intraperitoneally administered 60 min before testing. Control animals received vehicle (1% Tween 80) according to the same schedule.
# The testing procedure was based on a method described by. The plus-maze apparatus (an automated device produced by Campden Instruments Ltd. (United Kingdom) was made of durable, high density, non-porous black plastic, elevated to a height of 50 cm, and consisted of two open arms (50 × 10 cm) and two closed arms (50 × 10 cm, and 30 cm high walls) arranged so that the two arms of each type were opposite each other. The floor of the plus-maze was made of infrared transparent material, which means that there were no visible sensors. The plus-maze apparatus was connected to PC software by a control chassis. The experiments were conducted in a darkened room, and only the center of the maze was illuminated with low-intensity light (30 lux measured on the maze level). Each rat was gently placed in the center of the plus-maze, facing one of the closed arms, immediately after a 5-min adaptation period in a plastic black box (60 × 60 × 35 cm), to increase the overall activity in the EPM. During a 5-min test period, an automated motor monitor system recorded the number of entries into the closed and open arms and the time spent in either type of arm. The device counted an effective arm-entry when the four paws of a rat were into any arm. The maze was thoroughly cleaned after each trial. The EPM test is an “unconditional” anxiety-like test based on rodents’ natural aversion to heights and open space.
# The experiment was performed using an EPM apparatus (details see above). Total ambulation (the total distance covered by a rat and ambulation along the X and Y axes) was taken into account to discern drug effects on general activity from those on open-arm exploration during a 5-min test period (i.e., the time equal to the observation period in the EPM test). Rats’ behavior was not videotaped during the test.
# [3] = Parallel artificial membrane permeability assay (PAMPA)
# [4] = 0.3 mg/kg i.p., 60 min before test, 5-min session
# [5] = 1 mg/kg i.p., 60 min before test, 5-min session
# [6] = 3 mg/kg i.p., 60 min before test, 5-min session
smiles,measurement,setting,value
"CN1CCN(c2nc(N)nc(CN3C(=O)NC(C)(c4ccc5ccccc5c4)C3=O)n2)CC1 (centres unmarked) [KMP-10, 3-((4-amino-6-(4-methylpiperazin-1-yl)-1,3,5-triazin-2-yl)methyl)-5-methyl-5-(naphthalen-2-yl)imidazolidine-2,4-dione]","Papp at 2 h, 10 µM",[1],62.7 ± 3 nm/s
same,Caco-2 permeability classification,"Caco-2 cells; bands: Papp <2 low, 2-20 moderate, >20 × 10^−6 cm/s high",moderate permeability
same,"Caco-2 absorption, fold weaker than caffeine",Caco-2 cells; vs caffeine,3 fold
same,Influence on CYP2D6,CYP2D6,almost no influence
same,Total distance,[2]; [4],3240 ± 209 cm
same,X Ambulation,[2]; [4],116 ± 18
same,Y Ambulation,[2]; [4],98 ± 20
same,Total distance,[2]; [5],4558 ± 205 cm
same,X Ambulation,[2]; [5],152 ± 17
same,Y Ambulation,[2]; [5],63 ± 12
same,Total distance,[2]; [6],3881 ± 298 cm
same,X Ambulation,[2]; [6],131 ± 18
same,Y Ambulation,[2]; [6],133 ± 25
same,Anxiolytic-like activity in EPM test,"[2]; rats, doses of 1 and 3 mg/kg i.p., 60 min before test",showed anxiolytic-like activity
same,Locomotor activity in EPM test,"[2]; rats, i.p.",no changes
same,Percentage of time spent in the open arms,"[2]; rats, i.p., 5-min session, ANOVA F(3,22) = 15.774, p < 0.0001",increased
same,Time spent in the open arms,"[2]; rats, i.p., 5-min session, ANOVA F(3,22) = 17.100, p < 0.0001",increased
same,Distance travelled in the open arms,"[2]; rats, i.p., 5-min session, ANOVA p < 0.01",increased
same,"Papp at 5 h, 200 µM","[3]; PAMPA, pH 7.4",37.6 ± 7.6 nm/s
same,"PAMPA permeability, fold weaker than caffeine",[3]; vs caffeine,~ 4 fold and 4 fold
